Entries after “also recorded” stand apart in the source; their conditions may differ.
Assays:
[1] = molecular target: T1, IGF1R (Homo sapiens, UniProt P08069); assay: IGF1R cellular free kinase assay (pGT substrate phosphorylation); assay type: biochemical; details: partially purified IGF1R; 20 μM ATP; read-out: IC50 values of IGF1R activity in cellular free kinase assay
T1 construct: made in house
Method: The general protein-tyrosine kinase substrate, poly(Glu,Tyr) 4:1 (pGT), was coated onto a 96-well Maxisorp plates (Nunc) by adding 125 μl of 0.1 mg/ml pGT in PBS to each well. Plates were sealed and incubated for 16 hours at 37° C., washed once with TBST (10 mM Tris-HCl, pH 7.5, 50 mM NaCl, and 0.1% Triton X-100) and once with DDW, dried for 2-3 hours, and stored at 4° C. […] The plate was then washed with TBS with 0.2% Tween 20 (TBST) and blocked with 0.5% BSA in TBST. Mouse monoclonal anti-phosphotyrosine antibody, conjugated to Horse radish peroxidase (PT-66, 1:50000) was added to the plate. Following incubation for 45 min at room temperature, the plate was washed repeatedly with TBST. Detection was carried out with a color reagent, 2,2′-azido-bis-3-ethylbenzithiazoline-6-sulfonic acid, in citrate-phosphate buffer, pH 4.0, with 0.004% H2O2 for 10 min and monitored at 405 nm, all at room temperature. IC50 values of inhibitors were calculated using the REGRESSION program. The assay was optimized with respect to the amount of IGF-1R (partially purified from cells overexpressing IGF1R), reaction time, and ATP concentration. The signal was linear for 30 min in the range of IGF1R protein concentrations up to 35 ng/well.

[2] = tested on: IRS1; assay: IRS1 Ser-phosphorylation in YUMAC cells; assay type: cell-based, human; details: metastatic melanoma YUMAC cells
Method: (§1) In addition, lysates were prepared from cells exposed to inhibitors at various concentrations for 24 hours in the presence or the absence of FCS without stimulation. Lysate preparation and western blot were the same as described above. Apoptosis was detected by immunoblotting with rabbit anti-PARP antibodies.

[3] = tested on: IRS1; assay: IRS1 Ser-phosphorylation and IRS1 levels in MCF7 cells; assay type: cell-based; details: breast cancer MCF7 cells
Method: (§2) Tyrosine autophosphorylation of the β-subunit of IGF1R as well as downstream signaling induced by IGF1R were assayed in breast cancer MCF7 cells. Tyrosine autophosphorylation of the EGFR and the EGFR signaling was assayed in prostate cancer PC3 cells. Tyrosine autophosphorylation of the PDGFR and its signaling was assayed in fibroblasts overexpres sing PDGFR. Tyro sine autophosphorylation of the IR and its signaling was assayed in fibroblasts overexpressing IR. Cells were seeded in 6-well plates (MCF7-250,000 cells/well, PC3-150,000 cells/well, fibroblasts-140,000 cells/well) and 24 hours later medium was replaced by serum-free medium (DMEM supplemented with 100 units/ml penicillin and 100 μg/ml streptomycin). Following 20 hours of serum-starvation medium was replaced with medium containing various concentrations of the inhibitors in 0.1% DMSO for additional 4 hours. Cells were then stimulated for 5 min with 50 ng/ml IGF-1 (MCF7 cells), 20 ng/ml EGF (PC3 cells), 50 ng/ml PDGF (fibroblasts overexpressing PDGFR) or 100 nM insulin (fibroblasts overexpressing IR), washed twice with PBS and lysed by boiling sample buffer (10% glycerol, 50 mM Tris-HCl, pH 6.8, 3% SDS, and 5%, β-mercaptoethanol). Equal amounts of protein per lane were separated by 8% SDS-PAGE and transferred to a nitrocellulose membrane (Sartorius AG). Phosphorylated proteins were immunoblotted with anti-phospho-IGF1R (phosphor-IGF1R), anti-phosphotyrosine-IRS1 (phospho-IRS1), anti-phospho(T308)Akt (phospho-PKB), anti-phospho-Erk (phospho-ERK), anti-phosphotyrosine 4G10&PY20 (pY-EGFR or pY-PDGFR), anti-phospho-Ser^636/639-IRS1 (pS^636/639-IRS1) and anti-phospho-STAT3 (phospho-STAT3) antibodies. Detection was performed with horseradish peroxidase-conjugated secondary antibody using the ECL system. Blots were then stripped of antibodies, blocked with TBST with 5% low fat milk and re-probed with antibodies detecting both the phosphorylated and the non-phosphorylated corresponding proteins e.g. IGF1Rβ, IRS1, PKB, ERK, IRβ, PDGFR and Stat3.
as §1

[4] = tested on: metastatic melanoma YUMAC cells; assay: Apoptosis (cleaved PARP) in YUMAC cells; assay type: cell-based, human; details: 24 hours of exposure, 3 μM
Method: as §1

[5] = tested on: YUMAC; assay: Proliferation assay YUMAC; assay type: cell-based; details: Homo sapiens; Table 4; 72 hours incubation; read-out: Inhibition of human metastatic melanoma cells, YUMAC IC50
Method: (§3) Various cancer cell lines (listed in table 1) were plated at a density of 1000-5000 cells/well in 96-well plates in 90111 growth medium containing 10% FCS, 100 units/ml penicillin and 100 μg/ml streptomycin. Inhibitors were added a day later in 10 μl of 1% DMSO in DDW to obtain final concentrations of 0, 0.1, 0.3, 1, 3, and 10 μM. The final concentration of DMSO (0.1% DMSO) was kept constant in all samples. Medium with inhibitors was refreshed a day and two days later. Following exposure of the cells to the inhibitors for 72 hours at 37° C., the cells were fixed in 0.5% gluteraldehyde in medium for 10 min, washed three times with DDW, once with 0.1M sodium borate buffer pH 8.5 and stained with 1% methylene blue dissolved in 0.1M borate buffer solution for 60 min. Excess dye was washed out and cell-bound dye was eluted with 200 μl/well of 0.1 M HCl. The optical density value was read at 620 nm in ELISA plate reader. The data was analyzed in Microsoft Excel, using the vehicle control as 100% proliferation. The assays were performed in triplicates. The values in table 1 represent IC50 values derived from the dose-dependent growth curves obtained.
(§4) Compounds 6, 7, 8, and 9 were tested for their inhibitory potential in cell proliferation assay. In this assay cells were exposed to increasing concentrations of the molecules (at 0.1% DMSO in all wells) a day after seeding. Medium and inhibitors were refreshed every day, and following three days of treatment, cells were fixed and stained with methylene-Blue. IC50 values were determined from the curves of the optical density against compound concentration. The assay was performed in triplicates.

[6] = tested on: YURIF; assay: Proliferation assay YURIF; assay type: cell-based; details: Homo sapiens; Table 4; 72 hours incubation; read-out: Inhibition of human metastatic melanoma cells, YURIF IC50
Method: as §3, §4

[7] = molecular target: T1, IGF1R; assay: Inhibition of IGF1-induced signaling in intact MCF7 cells (western blot); assay type: cell-based; details: 4 h exposure, IGF1 stimulation
Method: as §2

T1 sequence (P08069 31-1367, species assumed): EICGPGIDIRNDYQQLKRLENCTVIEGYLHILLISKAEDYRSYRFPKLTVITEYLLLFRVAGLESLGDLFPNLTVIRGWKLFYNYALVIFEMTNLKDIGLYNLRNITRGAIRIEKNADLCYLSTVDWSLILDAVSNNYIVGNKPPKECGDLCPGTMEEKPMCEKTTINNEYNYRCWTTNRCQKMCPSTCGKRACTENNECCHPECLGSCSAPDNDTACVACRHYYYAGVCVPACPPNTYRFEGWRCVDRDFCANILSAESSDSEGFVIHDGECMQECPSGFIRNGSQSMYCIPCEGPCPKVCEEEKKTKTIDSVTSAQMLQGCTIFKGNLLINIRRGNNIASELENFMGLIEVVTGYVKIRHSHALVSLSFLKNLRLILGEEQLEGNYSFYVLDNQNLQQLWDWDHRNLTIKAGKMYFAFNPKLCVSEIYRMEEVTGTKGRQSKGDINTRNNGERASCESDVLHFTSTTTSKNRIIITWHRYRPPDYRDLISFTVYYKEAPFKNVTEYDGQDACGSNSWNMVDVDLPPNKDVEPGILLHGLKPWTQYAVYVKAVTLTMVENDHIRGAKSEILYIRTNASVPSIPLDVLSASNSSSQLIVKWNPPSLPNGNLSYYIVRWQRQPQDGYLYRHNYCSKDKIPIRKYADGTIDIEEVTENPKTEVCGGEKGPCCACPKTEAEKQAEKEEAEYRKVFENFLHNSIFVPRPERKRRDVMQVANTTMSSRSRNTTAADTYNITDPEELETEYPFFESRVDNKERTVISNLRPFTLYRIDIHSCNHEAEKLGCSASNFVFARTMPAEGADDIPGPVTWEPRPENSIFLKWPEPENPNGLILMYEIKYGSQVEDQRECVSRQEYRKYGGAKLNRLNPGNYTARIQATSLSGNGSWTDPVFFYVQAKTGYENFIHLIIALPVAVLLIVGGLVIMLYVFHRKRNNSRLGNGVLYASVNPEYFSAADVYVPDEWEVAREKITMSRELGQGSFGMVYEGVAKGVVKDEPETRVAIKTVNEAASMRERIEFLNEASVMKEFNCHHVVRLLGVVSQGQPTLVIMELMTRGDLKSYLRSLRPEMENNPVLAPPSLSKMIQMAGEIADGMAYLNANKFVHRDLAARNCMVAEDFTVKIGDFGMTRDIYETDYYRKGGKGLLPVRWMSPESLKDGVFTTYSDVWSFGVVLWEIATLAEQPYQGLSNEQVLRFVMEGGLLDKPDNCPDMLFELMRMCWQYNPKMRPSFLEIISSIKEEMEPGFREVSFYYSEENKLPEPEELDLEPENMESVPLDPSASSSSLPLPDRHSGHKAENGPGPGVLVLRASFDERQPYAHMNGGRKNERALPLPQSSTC

`N#C/C(=C\c1cc(O)c(O)c(F)c1)C(=S)NCc1cc(O)c(O)c(O)c1` [Compound 12] showed an IC50 [1] of 169 nM.

With `N#C/C(=C\c1cc(O)c(O)c(C(F)(F)F)c1)C(=S)NCc1cc(O)c(O)c(O)c1` [Compound 13] the “IRS1 Ser-phosphorylation” value [2] was “trigger IRS1-ser phosphorylation; also recorded: detected”, the IC50 [1] was 68 nM and the “IRS1 Ser-phosphorylation” value [3] was “trigger IRS1-ser phosphorylation”. The “Cleavage of PARP (apoptosis)” value [4] was “detected”, the IC50 [5] was 1000 nM and the IC50 [6] was 870 nM.

`Oc1cc(/C=C/C(=S)NCc2cc(O)c(O)c(Br)c2)cc(Br)c1O` [Compound 18] showed an IC50 [1] of 196 nM.

`N#C/C(=C\c1ccc2oc(=S)[nH]c2c1)C(=O)c1ccc(O)c(O)c1` [Compound 20, reference compound] was tested, and the “Inhibition of IGF1R autophosphorylation and IGF1-induced signaling (IRS1 pTyr, Akt/PKB, MAPK/ERK)” value [7] was “had no effect on the signaling”.

Work on `N#C/C(=C\c1cccc(Br)c1)C(=S)NCc1cc(O)c(O)c(O)c1` [Compound 19] yielded an IC50 [1] of 700 nM, an IC50 [5] of roughly 10000 nM and an IC50 [6] greater than 10000 nM.

`N#C/C(=C\c1cc(O)c(O)c(Br)c1)C(=S)NCc1ccc(O)c(O)c1` [Compound 15] was tested, and the IC50 [1] was 115 nM.

Molecule `N#C/C(=C\c1cc(O)c(O)c(I)c1)C(=S)NCc1ccc(O)c(O)c1` [Compound 16] has an IC50 [1] of 193 nM.

`Oc1cc(CNC(=S)/C=C/c2cc(O)c(O)c(I)c2)cc(O)c1O` [Compound 10] was tested, and the “IRS1 Ser-phosphorylation” value [2] was “trigger IRS1-ser phosphorylation; also recorded: detected”, the IC50 [1] was 33 nM and the “IRS1 Ser-phosphorylation” value [3] was “trigger IRS1-ser phosphorylation”. The “Cleavage of PARP (apoptosis)” value [4] was “detected”, the IC50 [5] was 300 nM and the IC50 [6] was 470 nM.

`N#C/C(=C\c1cc(O)c(O)c(O)c1)C(=S)NCc1cc(O)c(O)c(Br)c1` [Compound 17] showed an IC50 [1] of 49 nM, an IC50 [5] greater than 10000 nM and an IC50 [6] greater than 10000 nM.

For `N#C/C(=C\c1cc(O)c(O)c(Cl)c1)C(=S)NCc1cc(O)c(O)c(O)c1` [Compound 11], the “IRS1 Ser-phosphorylation” value [2] was “trigger IRS1-ser phosphorylation”, the IC50 [1] was 30 to 200 nM and the “IRS1 Ser-phosphorylation” value [3] was “trigger IRS1-ser phosphorylation”. For the same molecule, the IC50 [5] was 1200 nM and the IC50 [6] was 1200 nM.
